Data set [1] has as its target T1, human CRF receptor I (Homo sapiens, UniProt P34998).
T1 construct: expressed in transfected cells; host or cells: CHO-K1
T1 sequence (P34998 24-415): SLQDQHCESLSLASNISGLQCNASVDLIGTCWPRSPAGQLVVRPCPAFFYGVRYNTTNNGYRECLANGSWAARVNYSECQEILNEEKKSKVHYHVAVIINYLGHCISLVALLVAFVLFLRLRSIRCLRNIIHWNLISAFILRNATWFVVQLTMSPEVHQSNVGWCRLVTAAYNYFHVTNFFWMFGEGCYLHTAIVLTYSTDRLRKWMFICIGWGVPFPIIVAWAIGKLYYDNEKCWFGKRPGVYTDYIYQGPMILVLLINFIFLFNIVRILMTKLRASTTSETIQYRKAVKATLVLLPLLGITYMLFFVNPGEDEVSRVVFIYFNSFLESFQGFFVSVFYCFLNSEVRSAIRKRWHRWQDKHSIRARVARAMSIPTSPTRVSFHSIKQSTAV
Put plainly: Receptor antagonistic activity (cyclic AMP assay). It counts as cell-based. The conditions noted are these: accumulated cyclic AMP, human/rat CRF stimulation, cells expressing human CRF receptor I, 37° C. 15 minutes. How it is done: The forced expression cell strain of the human CRF receptor I was cultured at 37° C. under 5% carbon dioxide and 95% air by using a Ham's F-12 medium (F-12 nutrient mixture) containing 10% bovine fetal serum and 1% antibiotic substance-antifungal agent. On the previous day before the cyclic AMP was measured, the cells were inoculated into a 96-well plate in an amount of 1×10^4 cell/well. On the measurement day, the cells were washed twice with a Ham's F-12 medium, whereby a solution of Ham's F-12 medium/1 mM 3-isobutyl-1-methylxanthine (assay medium) (178 μL) was added to each well. After the incubation at 37° C. for 15 minutes, the solutions (2 μL) of evaluation compound in various concentrations were added thereto, or DMSO (2 μL) was added to a CRF group and a blank group. An assay medium (20 μL) containing 10 nM human/rat CRF was added to wells of an evaluation compound group and the CRF group. An assay medium (20 μL) containing 0.00001% acetic acid was added to the blank group. Each group was further incubated at 37° C. for 15 minutes. The supernatant was removed and ice-colded to stop the reaction. Note that the reactions of 2 wells were the same in all reactions. The measurement for accumulated cyclic AMP amount in cells was carried out by using a cyclic AMP Biotrak enzyme immunoassay system (manufactured by GE Healthcare). The accumulated cyclic AMP amounts were calculated by subtracting mean values of corresponding 2 wells in the blank group from that of 2 wells. The IC50 values were calculated with non-linear regression analysis by defining logarithm concentration of the evaluation compound as independent variable and an accumulated cyclic AMP amount as dependent variable.

Data set [2] concerns the target T1, human CRF receptor I. Put plainly: Binding assay (125I-CRF, membrane fraction). The conditions noted are these: 125I-CRF 0.25 nM, membrane fraction of CHO-K1 cells expressing human CRF receptor I, room temperature 2 hours. How it is done:
The forced-expression cell strain of the human CRF receptor I (parent strain is CHO-K1 cell) was cultured until the cell was confluent and collected with a scraper. The collected cells were washed twice with PBS, and were suspended with an ice-colded binding assay buffer (Tris-HCl (50 mM, pH 7.0), EDTA (2 mM, pH 8.0), and MgCl2 (10 mM)). After fractured with a dounce-type homogenizer, the suspended cells were centrifuged at 10,000 g, and a membrane fraction was collected. The collected membrane fraction was resuspended with a little amount of the binding assay buffer, thereafter diluted with the binding assay buffer so as to have a concentration of 1 mg/mL. The obtained membrane fraction was used for a binding assay.
^125I-CRF was diluted with the binding assay buffer so as to have a concentration of 0.5 nM, whereby 50 μL of the diluted ^125I-CRF was added to a siliconized 1.5 mL tube. Next, evaluation compounds diluted at appropriate times, DMSO (for general binding), or 100 μM of CRF (for non-specific binding), was added to a […]. Finally, 50 μL of the membrane fraction was added thereto and the reaction was started (final concentration of ^125I-CRF was 0.25 nM). The tube was incubated at room temperature for 2 hours. After the reaction, the tube was centrifuged at 20,000 g in order to collect the membrane fraction. The supernatant was discarded, and the pellet was washed with an ice-colded PBS/0.01% TritonX-100. A membrane binding count was measured using a y counter. The specific binding count was obtained by subtracting the non-specific count from the measured count.

Data set [3] concerns rats. Briefly: Rat learned helplessness test. It counts as in vivo. To be noted: oral, once a day for 6 days and 1 hour before the shock training. The method, then: The learned helplessness test was carried out using a two-way shuttle box which is partitioned into two by a gate which can be opened and closed so that travel to right and left becomes possible. On the 1st day of the learned helplessness test, rats were put into the device under un-escapable condition by closing the gate, and a total of 90 times of an electric shock (0.5 mA) was applied to them through a floor grid for 10 seconds at 2 seconds' intervals (shock training). Rats of the control group were left as they are for the same period of time (for 18 minutes) without applying the electric shock. After 24 hours of the shock training, rats were put into the device under escapable condition by opening the gate to carry out an escape test. After 5 minutes of acclimatization, a light stimulus and a sound stimulus (conditioning stimuli) were applied simultaneously for 5 seconds, and subsequent electric shock (un-conditioning stimulus) was applied for 10 seconds. This was regarded as one trial. A case of continuously receiving the electric shock without escape was regarded as escape failure. A total of 40 trials were carried out by setting the interval between respective trials to 5 seconds, and frequency of the escape failure was recorded.
In this connection, the vehicle (20% solvent) and evaluation compound were repeatedly administered once a day for 6 days and further orally administered 1 hour before the shock training.

Data set [4] deals with SD rats. Briefly: Elevated plus maze test with swim-stressed rat. It counts as in vivo. The conditions noted are these: orally 1 hour before the test. The method, then:
2 open arms with the same lengths (50×10 cm) and 2 close arms (a 30 cm wall was provided) with the same lengths (50×10 cm) were arranged in orthogonal manner at a height of 50 cm from the floor to provide an elevated crossroad maze system. In 70 cm above the both open arms, white light was provided, whereby illuminance was maintained at constant.
SD rats of 7 weeks of age (CHARLES RIVER LABORATORIES JAPAN) were forcedly made to swim for 120 seconds in a pool (40×30×38 cm) at 22° C. of water temperature and 25 cm of water depth. After 9 minutes of soaking stress loading, the rat was put on the center of the system. The activity for 5 minutes of the rat was analyzed with an automatic activity-tracking analysis system (EthoVision Version 3.0, Noldus Information Technology) to calculate the dwell time (second) on the open arm.
Note that no soaking stress was loaded on the control group. In addition, 20% Wellsolve (registered trademark) (5 mL/kg) was orally administered to the vehicle group and evaluation compounds in various concentrations were orally administrated to the evaluation compound administration group 1 hour before the test.

The nature of data set [5]: Light stability test. The class given is physicochemical. The conditions noted are these: 2500 Lux (D65 lamp), 25° C., HPLC. How it is done:
After weighing 5 mg of an evaluation compound, it was put into a test tube made of glass which was then sealed with a stop cock. Said test tube was stored at 25° C. for 11 days or 20 days under irradiation of 2500 Lux (a D65 lamp was used as the light source). The evaluation compound after 11 days or 20 days of irradiation was determined by an HPLC apparatus. Survival rate (%) of the evaluation compound was calculated by the following formula. Survival rate of evaluation compound (%)=amount of evaluation compound after 11 days or 20 days of irradiation (mg)/weighed value of evaluation compound (mg)×100 <HPLC Conditions> • Apparatus: A 1200 series (manufactured by Agilent Technologies, Inc.), • Column: YMC-Pack C4, A-802, 150×4.6 mm I.D., S-5 μm, 120 A (manufactured by YMC), • Mobile phase: A: water, B: acetonitrile, A/B: 35/65, • Column temperature: room temperature, • Flow rate: 1.0 mL/min.

The source of these data is patent US8420810B2, “Bicyclic heterocyclic compound” (Ono Pharmaceutical, Co., Ltd., priority 2007, dated 2013).

Structures are written as SMILES. pIC50: −log10 of the molar value.

As for `CCC(CC)c1cc(C)n2nc(-c3ncc(OC)cc3Cl)n(C)c(=O)c12` [Example 24(21), 2-(3-chloro-5-methoxy-2-pyridinyl)-5-(1-ethylpropyl)-3,7-dimethylpyrrolo[2,1-f][1,2,4]triazin-4(3H)-one], the pIC50 (as a rule, the negative decadic logarithm of the IC50, by convention in mol/L) in data set [1] is 8.24; in data set [2] it was 8.28. The “increase of the frequency of escape failure for the vehicle group” value (from here on “increase”) in data set [3] (10 mg/kg) is on record as “significantly inhibited”.

As for `CCN(CC)c1cc(C)n2nc(-c3ccc(OC)cc3Cl)n(C)c(=O)c12` [Example 65, 2-(2-chloro-4-methoxyphenyl)-5-(diethylamino)-3,7-dimethylpyrrolo[2,1-f][1,2,4]triazin-4(3H)-one], the pIC50 in data set [1] was 8.46; in data set [2], 8.31.

As to `CCC(CC)c1cc(C)n2nc(-c3cnc(OC(F)F)cc3C)n(C)c(=O)c12` [Example 13, 2-[6-(difluoromethoxy)-4-methyl-3pyridinyl]-5-(1-ethylpropyl)-3,7-dimethylpyrrolo[2,1-f][1,2,4]triazin-4(3H)-one], the pIC50 in data set [1] was 8.49; in data set [2], 8.28. Moreover, the “increase” value in data set [3] (3 mg/kg) is “significantly inhibited”.

Consider `CCCC(C)c1cc(C)n2nc(-c3cnc(OC(F)F)cc3C)n(C)c(=O)c12` (stereo not drawn) [28(10), 2-[6-(difluoromethoxy)-4-methyl-3-pyridinyl]-3,7-dimethyl-5-(1-methylbutyl)pyrrolo[2,1-f][1,2,4]triazin-4(3H)-one], for which the pIC50 in data set [1] is 7.77; in data set [2] it was 7.68. For the same compound, the “mean dwell time on the open arm compared to that of the vehicle group” value in data set [4] is “favorably elongated”.

With `CCC(CC)c1cc(C)n2nc(-c3ccc(OC(F)(F)F)cc3Cl)n(C)c(=O)c12` [Example 8, 2-[2-chloro-4-(trifluoromethoxy)phenyl]-5-(1-ethylpropyl)-3,7-dimethylpyrrolo[2,1-f][1,2,4]triazin-4(3H)-one], the values for the pIC50 in data set [1] and in data set [2] were 8.74 and 8.21, respectively. The “residual ratio after 20 days” value in data set [5] came out at 99%. Moreover, in data set [4] (10 mg/kg), the “mean dwell time on the open arm compared to that of the vehicle group” value is listed as “favorably elongated”. For the same compound, the “increase” value in data set [3] (10 mg/kg) is “significantly inhibited”.

On to `CCCC(C)c1cc(C)n2nc(-c3ccc(SC)cc3Cl)n(C)c(=O)c12` (stereo not drawn) [Example 22, 2-[2-chloro-4-(methylthio)phenyl]-3,7-dimethyl-5-(1-methylbutyl)pyrrolo[2,1-f][1,2,4]triazin-4(3H)-one], for which the values for the pIC50 in data set [1] and in data set [2] were 8.72 and 8.68, respectively. For the same compound, the “increase” value in data set [3] (3 mg/kg) was “significantly inhibited”.

Take `CCc1cc(OC)ccc1-c1nn2c(C)cc(C(CC)CC)c2c(=O)n1C` [8(25), 2-(2-ethyl-4-methoxyphenyl)-5-(1-ethylpropyl)-3,7-dimethylpyrrolo[2,1-f][1,2,4]triazin-4(3H)-one]: the pIC50 in data set [1] is 8.77; in data set [2], 8.44. Moreover, the “mean dwell time on the open arm compared to that of the vehicle group” value in data set [4] is listed as “favorably elongated”.

Consider `CCn1c(-c2ccc(SC)cc2C)nn2c(C)cc(C(C)C)c2c1=O` [Example 23, 3-ethyl-5-isopropyl-7-methyl-2-[2-methyl-4-(methylthio)phenyl]pyrrolo[2,1-f][1,2,4]triazin-4(3H)-one], for which the pIC50 in data set [1] is 8.02; in data set [2] it was 7.96. Also, the “mean dwell time on the open arm compared to that of the vehicle group” value in data set [4] (10 mg/kg) is reported as “favorably elongated”.

As for `CCC(CC)c1cc(C)n2nc(-c3sc(N(C)C)nc3Cl)n(C)c(=O)c12` [8(48), 2-[4-chloro-2-(dimethylamino)-1,3-thiazol-5-yl]-5-(1-ethylpropyl)-3,7-dimethylpyrrolo[2,1-f][1,2,4]triazin-4(3H)-one], the pIC50 in data set [1] was 8.92; in data set [2], 8.14.

Consider `CCC(CC)c1cc(C)n2nc(-c3ccc(OC)cc3C)n(CC(N)=O)c(=O)c12` [8(38), 2-[5-(1-ethylpropyl)-2-(4-methoxy-2-methylphenyl)-7-methyl-4-oxopyrrolo[2,1-f][1,2,4]triazin-3(4H)-yl]acetamide], for which the pIC50 in data set [1] is 7.46; in data set [2], 7.63.

For the compound `CCC(CC)c1cc(C)n2nc(-c3c(C)nc(N(C)C)nc3C)n(C)c(=O)c12` [8(27), 2-[2-(dimethylamino)-4,6-dimethyl-5-pyrimidinyl]-5-(1-ethylpropyl)-3,7-dimethylpyrrolo[2,1-f][1,2,4]triazin-4(3H)-one], the values for the pIC50 in data set [1] and in data set [2] were 8.03 and 7.83, respectively.

Turning to `CCC(CC)c1cc(C)n2nc(-c3ccc(OC)cc3C)n(CCO)c(=O)c12` [8(44), 5-(1-ethylpropyl)-3-(2-hydroxyethyl)-2-(4-methoxy-2-methylphenyl)-7-methylpyrrolo[2,1-f][1,2,4]triazin-4(3H)-one], the pIC50 was 8.38 in data set [1] and 8.11 in data set [2].
